Inconclusive results and toxic doses are left out. The calls were made as follows: active = survival T/C of 150% or more; inactive = T/C below 125% in these data.
System: C57BL/6 mice, intracerebral ependymoblastoma, median survival T/C
Assay: NCI In Vivo Anticancer Drug Screen. Data for tumor model Ependymoblastoma (intracerebral) in C57BL/6 mice
Details: endpoint: median survival time, schedule: Q01DX005 (ip), higher = longer survival
Protocol: The antitumor activity of compounds was measured in mice bearing transplantable tumors. Survival or tumor size were measured and the results are expressed as the measurement made in the treated group (T) divided by the measurement made in the vehicle treated control group (C). The tumor model used in this assay is Ependymoblastoma (intracerebral) in C57BL/6 mice

Measured: T/C

O=C1N(Cl)C(=O)C(c2ccc(Cl)cc2)(c2ccc(Cl)cc2)N1Cl
inactive: dose: 1.56 mg/kg/injection, vehicle: Klucel (hydroxypropylcellulose) (HPC) 105 % of control | dose: 3.12 mg/kg/injection, vehicle: Klucel (hydroxypropylcellulose) (HPC) 110 % of control | dose: 6.25 mg/kg/injection, vehicle: Klucel (hydroxypropylcellulose) (HPC) 99 % of control | dose: 12.5 mg/kg/injection, vehicle: Klucel (hydroxypropylcellulose) (HPC) 112 % of control | dose: 25.0 mg/kg/injection, vehicle: Klucel (hydroxypropylcellulose) (HPC) 110 % of control

O=S(=O)(O)O
inactive: dose: 16.0 mg/kg/injection, vehicle: saline with Tween-80 90 % of control | dose: 32.0 mg/kg/injection, vehicle: saline with Tween-80 94 % of control | dose: 64.0 mg/kg/injection, vehicle: saline with Tween-80 112 % of control

NC(CSC(c1ccccc1)(c1ccccc1)c1ccccc1)C(=O)O (stereo not given)
inactive: dose: 32.0 mg/kg/injection, vehicle: Klucel (hydroxypropylcellulose) (HPC) 99 % of control | dose: 64.0 mg/kg/injection, vehicle: Klucel (hydroxypropylcellulose) (HPC) 109 % of control

Nc1nc(=S)c2ncn(C3OC(CO)CC3O)c2[nH]1 (stereo not given)
inactive: dose: 5.0 mg/kg/injection, vehicle: saline 99 % of control | dose: 10.0 mg/kg/injection, vehicle: saline 99 % of control

Nc1ccc(C(=O)O)c(O)c1
inactive: dose: 67.5 mg/kg/injection, vehicle: saline with Tween-80 103 % of control | dose: 135.0 mg/kg/injection, vehicle: saline with Tween-80 94 % of control | dose: 270.0 mg/kg/injection, vehicle: saline with Tween-80 86 % of control

From PubChem BioAssay AID222 (DTP/NCI, 2004)
